Where a name gives a salt, the structure may show the parent alone.
Key:
[1] = test system: #243 E. faecium van B ST17; experiment: Antibacterial assay (MIC), VRE strain #243, Enterococossel Broth, Example 1; assay type: cell-based, Enterococcus faecium; settings: Enterococcus faecium; Example 1 compounds; VRE #243 E. faecium van B; 24 hrs, 37° C.; read-out: 243 (minimum inhibitory concentration)
Description: (§1) Antibacterial Assay Method for Staphylococcus aureus (ATCC 6538P) and Enterococcus faecium
(§2) VRE strains: #243 E. faecium van B ST17 #449 E. faecium van B ST17
(§3) Compounds are accurately weighed out (between approx. 1-2 mg) and dissolved in either 10% methanol/water (v/v) or 100% DMSO to a final stock concentration of 5 mg/ml.
(§4) Compounds are then diluted 1/10 in H2O to a test conc of 500 ug/ml ready for immediate use, or storage at −20° C.
(§5) Grow up an o/n starter culture of Staphylococcus aureus and each VRE strain by diluting previous culture (stored at 4° C.) 1/1000 into −50 mls Luria Broth (LB) for S. aureus or Enterococossel Broth (EB) for the VRE strains.
(§6) Incubate o/n at 37° C.+shaking. • A glycerol stock (0.6 mls bacterial culture, 0.3 mls glycerol) of each strain is kept at −80° C. if needed. Assay Set Up:
(§7) In a 96well round bottom plate add 50 ul LB/well for the S. aureus plate and add 50 ul EB/well for the VRE plates.
(§8) Add 50 ul of compound dilution (500 ug/ml test conc) to each of three top row wells (ie: tested in triplicate) and dilute 1 in 2 from the top row to the bottom row.
(§9) After the compound dilution, add to each well 50 ul of a 1/1000 dilution of the appropriate overnight bacterial culture, either S. aureus or the different VRE strains.
(§10) Plates are incubated at 37° C. on a slowly rotating plate incubator. • test concentrations are (in ug/ml) 125, 62.5, 31.25, 15.6, 7.8, 3.9, 1.9, 0.98 • final DMSO concentration in the first row of wells of the assay is 2.5% • Vancomycin is included in the assay (in triplicate) at a starting test concentration of 5 ug/ml for S. aureus and 125 ug/ml for the VRE strains Reading Results of Assay:
(§11) After incubation for 24 hrs the plates are removed and read. Inhibition of bacterial growth is indicated by lack of bacterial pellet or a clear well. In the VRE plates bacterial growth is indicated by black coloured media (EB) as well as a bacterial pellet.
(§12) Untreated control wells are included in the assay to check they all contain bacterial pellets. Uninoculated untreated control wells are included to check they all contain clear medium.
(§13) The plates are analysed for MIC and the results tabulated.

[2] = test system: Staphylococcus aureus (ATCC 6538P); experiment: Antibacterial assay (MIC), Staphylococcus aureus ATCC 6538P, Luria Broth, Example 1; assay type: cell-based; settings: Staphylococcus aureus, ATCC6538P; Example 1 compounds; S. aureus ATCC 6538P; 24 hrs, 37° C.; range if at least two of three values fell within it; read-out: Sa (minimum inhibitory concentration)
Description: as §1
Staphylococcus aureus (ATCC 6538P)
as §3, §4, §5, §6, §7, §8, §9, §10, §11, §12, §13

[3] = test system: Staphylococcus aureus Mu50 (ATCC 700699); experiment: MIC determination by micro-broth dilution (NCCLS), S. aureus Mu50; assay type: cell-based; settings: ATCC700699, Example 1 compounds, Mueller Hinton II broth, 24 hours, 37° C.
Description: (§14) Antibacterial Assay Methods for Staphylococcus aureus Mu50 (ATCC 700699), Methicillin-Resistant Staphylococcus aureus (ATCC 43300), Multi-Drug-Resistant Staphylococcus epidermidis (ATCC 700562) Compounds
(§15) The compounds were stored at room temperature in the dark prior to use. Each compound was solubilized in DMSO to a final concentration of 40 mg/mL. The stock material was diluted to a concentration equivalent to two times the final in-well high test concentration (100 μg/mL for all experimental compounds) in Mueller Hinton II broth. […] Vancomycin and oxacillin were obtained from Sigma Aldrich Chemical Company and were used as positive and/or negative control compounds in the reported assays at high test concentrations of 100, 25 and 100 μg/mL respectively.
(§16) The bacterial strains employed in these assays were obtained from the American Type Culture Collection (ATCC). All of the bacterial strains were propagated as recommended by the ATCC. Each strain was stored as a frozen glycerol stock at −80° C. and a 10 μL loop of the frozen stocks was used to inoculate each culture for these assays.
(§17) The susceptibility of the above microorganisms to the test compounds was evaluated by determining the MIC of each compound using micro-broth dilution analysis according to the methods recommended by the NCCLS. All microbial strains were obtained from American Type Culture Collections (ATCC) and cultured according to the suppliers recommendations. Evaluation of the susceptibility of each organism against the test compounds included a positive control antibiotics Vancomycin and Oxacillin. For each organism, a standardized inoculum was prepared by direct suspension of freshly plated colonies in Mueller Hinton II broth to an optical density 625 nm (OD625) of 0.1 (equivalent to a 0.5 McFarland standard). The suspended inoculum was diluted to a concentration of approximately 1×10^6 colony forming units per milliliter (CFU/mL) and 100 μL placed into triplicate wells of a 96-well plate containing 100 μL of test compound serially diluted 2-fold in Mueller Hinton II broth. One hundred microliters of the inoculum was also added to triplicate wells containing 100 μL of two-fold serial dilutions of a positive control antibiotic and to wells containing 100 μL of media only. This dilution scheme yielded final concentrations for each microbial organism estimated to be 5×10^5 CFU/mL (verified by colony quantification on appropriate agar plates, data is not presented). Test compound concentrations ranged from a high-test of 1:2 (100 μg/mL)) to a low test of 1:2048 (0.1 μg/mL) using a two-fold dilution scheme. The plates were incubated for 24 hours at 37° C., and the microbial growth at each concentration of compound was determined by measuring the optical density at 625 nm on a Molecular Devices SpectraMax Plus-384 plate reader.
(§18) Microsoft Excel 2003 was used to analyze and graph the data, and the MIC (minimal inhibitory concentration) was determined from the resulting data.

[4] = test system: #449 E. faecium van B ST17; experiment: Antibacterial assay (MIC), VRE strain #449, Enterococossel Broth, Example 1; assay type: cell-based, Enterococcus faecium; settings: Enterococcus faecium; Example 1 compounds; VRE #449 E. faecium van B; 24 hrs, 37° C.; read-out: 449 (minimum inhibitory concentration)
Description: as §1, §2, §3, §4, §5, §6, §7, §8, §9, §10, §11, §12, §13

[5] = test system: #987 E. faecium van B ST39; experiment: Antibacterial assay (MIC), VRE strain #987, Enterococossel Broth, Example 1; assay type: cell-based, Enterococcus faecium; settings: Enterococcus faecium; Example 1 compounds; VRE #987 E. faecium van B; 24 hrs, 37° C.; read-out: 987 (minimum inhibitory concentration)
Description: as §1
(§19) #820 E. faecium van A ST17 #987 E. faecium van B ST39
as §3, §4, §5, §6, §7, §8, §9, §10, §11, §12, §13

[6] = test system: #820 E. faecium van A ST17; experiment: Antibacterial assay (MIC), VRE strain #820, Enterococossel Broth, Example 1; assay type: cell-based, Enterococcus faecium; settings: Enterococcus faecium; Example 1 compounds; VRE #820 E. faecium van A; 24 hrs, 37° C.; read-out: 820 (minimum inhibitory concentration)
Description: as §1, §19, §3, §4, §5, §6, §7, §8, §9, §10, §11, §12, §13

[7] = test system: Multi-Drug-Resistant Staphylococcus epidermidis (ATCC 700562); experiment: MIC determination by micro-broth dilution (NCCLS), multi-drug-resistant S. epidermidis; assay type: cell-based; settings: ATCC700562, Example 1 compounds, Mueller Hinton II broth, 24 hours, 37° C.
Description: as §14, §15, §16, §17, §18

[8] = test system: Methicillin-Resistant Staphylococcus aureus (ATCC 43300); experiment: MIC determination by micro-broth dilution (NCCLS), methicillin-resistant S. aureus; assay type: cell-based; settings: ATCC43300, Example 1 compounds, Mueller Hinton II broth, 24 hours, 37° C.
Description: as §14, §15, §16, §17, §18

[9] = molecular target: T1, HIV integrase enzyme (Human immunodeficiency virus type 1 group M subtype B, UniProt P04585); experiment: HIV integrase initial screening (3′ processing function); assay type: biochemical; settings: Example 2 compounds; Conc. 50 μg/mL; 3′ processing function of the enzyme
T1 construct: against the HIV integrase enzyme
From the text: Compounds synthesized in Example 2 were additionally included in a random database screening strategy against the HIV integrase enzyme.
The compounds that were chosen to be tested against HIV integrase were 78, 81, 88 and 89 and the results are represented in Table 4.
The results for the screening of the four target molecules 165-168 against the HIV integrase enzyme yielded some encouraging results which supported the proposed mechanism of binding in the active binding trench of the HIV integrase enzyme. The testing procedure for the four target compounds differed from the original screening protocols employed. The original screening measured inhibition against the 3′ processing function of the enzyme at the fixed concentration of 50 μg/mL, whereas the four target molecules were tested in an assay adapted from a literature procedure,^107 which measures inhibition against the 3′ strand transfer function of the enzyme. This allows a result to be obtained as an inhibition constant (IC50) concentration, which is the standard measurement of inhibition within the literature. Along with the four target molecules, 88 was also re-tested in the 3′ strand transfer assay to determine the IC50 for direct comparison with the literature.

| Compound | MIC [1] [µg/mL] | MIC [2] [µg/mL] | MIC [3] [µg/mL] | MIC [4] [µg/mL] | MIC [5] [µg/mL] | MIC [6] [µg/mL] | MIC [7] [µg/mL] | MIC [8] [µg/mL] | inhibition at 50 µg/mL [9] [%] |
| --- | --- | --- | --- | --- | --- | --- | --- | --- | --- |
| CC(C)CCOc1ccc2ccccc2c1-c1c(OCCNC(=O)[C@@H](CCCCN)NC(=O)[C@@H](CCCNC(=N)N)NC(=O)[C@@H](CC(C)C)NC(=O)Cc2ccccc2)ccc2ccccc12.Cl.Cl (atropisomer, axis not shown) [Compound 30] | > 62.6 | 0.99 to 15.6 | 0.99 to 15.6 | > 62.6 | > 62.6 | > 62.6 | 0.99 to 15.6 | 0.99 to 15.6 |  |
| Cl.Cl.N=C(N)NCCC[C@@H](NC(=O)CCCOc1ccc2ccccc2c1-c1c(OCCCC(=O)N[C@H](CCCNC(=N)N)C(=O)OCc2ccccc2)ccc2ccccc12)C(=O)OCc1ccccc1 (atropisomer, axis not shown) [Compound 31] | 15.7 to 62.5 | 0.99 to 15.6 | 15.7 to 62.5 | 15.7 to 62.5 | 15.7 to 62.5 | 15.7 to 62.5 | 0.99 to 15.6 | 0.99 to 15.6 |  |
| C=CCOc1ccc(C[C@H](NC(C)=O)C(=O)N[C@@H](CCCCN)C(=O)N[C@@H](CC=C)C(=O)OC)cc1 [Compound 78, hydrochloride] |  |  |  |  |  |  |  |  | 15 |
| C=CCOc1ccc(C[C@H](NC(C)=O)C(=O)N[C@@H](CCCNC(=N)N)C(=O)N[C@@H](CC=C)C(=O)OC)cc1 [Compound 81, Methyl(2S,5S,8S)-2-allyl-8-(4-allyloxybenzyl)-3,6,9-triaza-5-(3-[guanidino]propyl)-4,7,10-oxoundecanoate hydrochloride] |  |  |  |  |  |  |  |  | 70 |
| C=CCOc1ccc(C[C@H](NC(C)=O)C(=O)N[C@@H](CCCCNC(=N)N)C(=O)N[C@@H](CC=C)C(=O)OC)cc1 [Compound 88, Methyl(2S,5S,8S)-2-allyl-9-(4-allyloxyphenyl)-5-(4-[guanidino]butyl)-3,6,9-triaza-4,7,10-trioxoundecanoate hydrochloride] |  |  |  |  |  |  |  |  | 95 |
| COC(=O)[C@@H]1CC=CCOc2ccc(cc2)C[C@H](NC(C)=O)C(=O)N[C@@H](CCCCNC(=N)N)C(=O)N1 [Compound 89, (7S,10S,13S,4E/Z)-13-Acetamido-10-(4-[guanidino]butyl)-8,11-diaza-7-methoxycarbonyl-2-oxa-9,12-dioxo-1(1,4)phenylenacyclotetradecaphane-4-ene hydrochloride] |  |  |  |  |  |  |  |  | 4 |

From patent US8039430B2 (University of Wollongong, priority 2005, dated 2011)
